# ChEMBL document CHEMBL2440076, “New triarylpyrazoles as broad-spectrum anticancer agents: design, synthesis, and biological evaluation” (Eur J Med Chem, 2013)
# Assays:
# UACC-62 = assay: Growth inhibition of human UACC62 cells assessed as cell growth at 10 uM after 48 hrs by sulforhodamine B assay; format: functional; settings: UACC-62, 48 h, read-out: Activity
# SW-620 = assay: Growth inhibition of human SW620 cells assessed as cell growth at 10 uM after 48 hrs by sulforhodamine B assay; format: functional; settings: SW-620, 48 h, read-out: Activity
# CCRF-CEM = assay: Growth inhibition of human CCRF-CEM cells after 48 hrs by sulforhodamine B assay; format: functional
# Malme-3M [1] = assay: Growth inhibition of human MALME-3M cells after 48 hrs by sulforhodamine B assay; format: functional
# NCI-H23 = assay: Growth inhibition of human NCI-H23 cells assessed as cell growth at 10 uM after 48 hrs by sulforhodamine B assay; format: functional; settings: NCI-H23, 48 h, read-out: Activity
# MDA-MB-435 = assay: Growth inhibition of human MDA-MB-435 cells assessed as cell growth at 10 uM after 48 hrs by sulforhodamine B assay; format: functional; settings: MDA-MB-435, 48 h, read-out: Activity
# NCI-H460 = assay: Growth inhibition of human NCI-H460 cells after 48 hrs by sulforhodamine B assay; format: functional; settings: NCI-H460, 48 h
# IGROV-1 [2] = assay: Growth inhibition of human IGROV1 cells after 48 hrs by sulforhodamine B assay; format: functional; settings: IGROV-1, 48 h
# UO-31 = assay: Growth inhibition of human UO31 cells assessed as cell growth at 10 uM after 48 hrs by sulforhodamine B assay; format: functional; settings: UO-31, 48 h, read-out: Activity
# HCT-116 = assay: Growth inhibition of human HCT116 cells assessed as cell growth at 10 uM after 48 hrs by sulforhodamine B assay; format: functional; settings: HCT-116, 48 h, read-out: Activity
# SF-268 [3] = assay: Growth inhibition of human SF268 cells after 48 hrs by sulforhodamine B assay; format: functional; settings: SF-268, 48 h; for CC50: read-out: LC50 (the source's name)
# PC-3 = assay: Growth inhibition of human PC3 cells after 48 hrs by sulforhodamine B assay; format: functional, cell-based; settings: PC-3, 48 h; for CC50: read-out: LC50 (the source's name)
# HOP-92 = assay: Growth inhibition of human HOP92 cells after 48 hrs by sulforhodamine B assay; format: functional, cell-based; settings: HOP-92, 48 h
# NCI-H522 = assay: Growth inhibition of human NCI-H522 cells after 48 hrs by sulforhodamine B assay; format: functional; settings: NCI-H522, 48 h
# A498 = assay: Growth inhibition of human A498 cells after 48 hrs by sulforhodamine B assay; format: functional, cell-based; settings: A498, 48 h; for CC50: read-out: LC50 (the source's name)
# [4] = Growth inhibition of human Hs 578T cells after 48 hrs by sulforhodamine B assay; format: functional; settings: for CC50: read-out: LC50 (the source's name)
# OVCAR-5 = assay: Growth inhibition of human OVCAR5 cells after 48 hrs by sulforhodamine B assay; format: functional; settings: OVCAR-5, 48 h
# M14 = assay: Growth inhibition of human M14 cells after 48 hrs by sulforhodamine B assay; format: functional; settings: M14, 48 h
# SN12C = assay: Growth inhibition of human SN12C cells after 48 hrs by sulforhodamine B assay; format: functional; settings: for CC50: read-out: LC50 (the source's name)
# IGROV-1 [5] = assay: Growth inhibition of human IGROV1 cells assessed as cell growth at 10 uM after 48 hrs by sulforhodamine B assay; format: functional; settings: IGROV-1, 48 h, read-out: Activity
# ACHN = assay: Growth inhibition of human ACHN cells assessed as cell growth at 10 uM after 48 hrs by sulforhodamine B assay; format: functional; settings: read-out: Activity
# SF-268 [6] = assay: Growth inhibition of human SF268 cells assessed as cell growth at 10 uM after 48 hrs by sulforhodamine B assay; format: functional; settings: SF-268, 48 h, read-out: Activity
# HOP-62 = assay: Growth inhibition of human HOP62 cells after 48 hrs by sulforhodamine B assay; format: functional; settings: HOP-62, 48 h; for CC50: read-out: LC50 (the source's name)
# SNB-75 = assay: Growth inhibition of human SNB75 cells after 48 hrs by sulforhodamine B assay; format: functional; settings: SNB-75, 48 h
# LOX IMVI [7] = assay: Growth inhibition of human LOXIMVI cells after 48 hrs by sulforhodamine B assay; format: functional
# NCI-H226 = assay: Growth inhibition of human NCI-H226 cells after 48 hrs by sulforhodamine B assay; format: functional; settings: NCI-H226, 48 h; for CC50: read-out: LC50 (the source's name)
# MCF7 = assay: Growth inhibition of human MCF7 cells after 48 hrs by sulforhodamine B assay; format: functional; settings: MCF7, 48 h
# 786-0 = assay: Growth inhibition of human 786-0 cells assessed as cell growth at 10 uM after 48 hrs by sulforhodamine B assay; format: functional; settings: 786-0, 48 h, read-out: Activity
# OVCAR-4 = assay: Growth inhibition of human OVCAR4 cells after 48 hrs by sulforhodamine B assay; format: functional; settings: OVCAR-4, 48 h
# Malme-3M [8] = assay: Growth inhibition of human MALME-3M cells assessed as cell growth at 10 uM after 48 hrs by sulforhodamine B assay; format: functional; settings: read-out: Activity
# SK-OV-3 = assay: Growth inhibition of human SKOV3 cells after 48 hrs by sulforhodamine B assay; format: functional; settings: SK-OV-3, 48 h; for CC50: read-out: LC50 (the source's name)
# LOX IMVI [9] = assay: Growth inhibition of human LOXIMVI cells assessed as cell growth at 10 uM after 48 hrs by sulforhodamine B assay; format: functional; settings: read-out: Activity
# SK-MEL-2 = assay: Growth inhibition of human SK-MEL-2 cells assessed as cell growth at 10 uM after 48 hrs by sulforhodamine B assay; format: functional; settings: SK-MEL-2, 48 h, read-out: Activity
# SF-295 = assay: Growth inhibition of human SF295 cells after 48 hrs by sulforhodamine B assay; format: functional, cell-based; settings: SF-295, 48 h; for CC50: read-out: LC50 (the source's name)
structure (smiles),measurement,setting,value
COc1cc(-c2nn(-c3cccc(NC(=O)c4ccccc4)c3)cc2-c2ccncc2)ccc1Cl,growth at 10 µM,UACC-62,32.5%
same,growth at 10 µM,SW-620,18.4%
same,GI50,CCRF-CEM,0.492 µM
same,LC50,CCRF-CEM,> 100 µM
same,TGI,CCRF-CEM,> 100 µM
same,GI50,Malme-3M [1],0.537 µM
same,LC50 (concentration killing 50% of starting cells),Malme-3M [1],> 100 µM
same,TGI,Malme-3M [1],> 100 µM
same,growth at 10 µM,NCI-H23,33.8%
same,growth at 10 µM,MDA-MB-435,-57.9%
same,GI50,NCI-H460,0.394 µM
same,LC50,NCI-H460,> 100 µM
same,TGI,NCI-H460,> 100 µM
same,GI50,IGROV-1 [2],0.534 µM
same,LC50 (concentration killing 50% of cells),IGROV-1 [2],> 100 µM
same,TGI,IGROV-1 [2],> 100 µM
same,growth at 10 µM,UO-31,29.8%
same,growth at 10 µM,HCT-116,8.58%
same,GI50,SF-268 [3],0.859 µM
same,TGI,SF-268 [3],> 100 µM
same,CC50,SF-268 [3],> 100 µM
same,GI50,PC-3,0.426 µM
same,IC50,PC-3,0.43 µM
same,TGI,PC-3,> 100 µM
same,CC50,PC-3,> 100 µM
same,GI50,HOP-92,0.324 µM
same,IC50,HOP-92,0.32 µM
same,LC50,HOP-92,> 100 µM
same,TGI,HOP-92,4.71 µM
same,GI50,NCI-H522,0.317 µM
same,LC50 (concentration killing 50% of cells),NCI-H522,> 100 µM
same,TGI,NCI-H522,> 100 µM
same,GI50,A498,0.361 µM
same,IC50,A498,0.36 µM
same,TGI,A498,3.14 µM
same,CC50,A498,> 100 µM
same,GI50,[4],1.11 µM
same,TGI,[4],> 100 µM
same,CC50,[4],> 100 µM
same,GI50,OVCAR-5,15 µM
same,LC50 (concentration killing 50% of cells),OVCAR-5,> 100 µM
same,TGI,OVCAR-5,> 100 µM
same,GI50,M14,0.575 µM
same,LC50 (concentration killing 50% of cells),M14,> 100 µM
same,TGI,M14,12.9 µM
same,GI50,SN12C,2.95 µM
same,TGI,SN12C,> 100 µM
same,CC50,SN12C,> 100 µM
same,growth at 10 µM,IGROV-1 [5],47.4%
same,growth at 10 µM,ACHN,32.3%
same,growth at 10 µM,SF-268 [6],18.7%
same,GI50,HOP-62,8.34 µM
same,TGI,HOP-62,> 100 µM
same,CC50,HOP-62,> 100 µM
same,GI50,SNB-75,0.575 µM
same,"LC50 (lethal concentration, 50% net cell kill)",SNB-75,> 100 µM
same,TGI,SNB-75,> 100 µM
same,GI50,LOX IMVI [7],0.567 µM
same,LC50,LOX IMVI [7],> 100 µM
same,TGI,LOX IMVI [7],> 100 µM
same,GI50,NCI-H226,2.35 µM
same,TGI,NCI-H226,> 100 µM
same,CC50,NCI-H226,> 100 µM
same,GI50,MCF7,0.335 µM
same,LC50,MCF7,> 100 µM
same,TGI,MCF7,> 100 µM
same,growth at 10 µM,786-0,21.3%
same,GI50,OVCAR-4,1.17 µM
same,LC50 (concentration killing 50% of cells),OVCAR-4,> 100 µM
same,TGI,OVCAR-4,> 100 µM
same,growth at 10 µM,Malme-3M [8],22.4%
same,GI50,SK-OV-3,1.07 µM
same,TGI,SK-OV-3,> 100 µM
same,CC50,SK-OV-3,> 100 µM
same,growth at 10 µM,LOX IMVI [9],17.4%
same,growth at 10 µM,SK-MEL-2,-42.5%
same,GI50,SF-295,0.337 µM
same,IC50,SF-295,0.34 µM
same,TGI,SF-295,2.26 µM
same,CC50,SF-295,> 100 µM
O=C(Nc1cccc(-n2cc(-c3ccncc3)c(-c3ccc(Cl)c(O)c3)n2)c1)Nc1ccc(Cl)c(C(F)(F)F)c1,growth at 10 µM,UACC-62,-55.1%
same,growth at 10 µM,SW-620,-19.7%
same,GI50,CCRF-CEM,0.719 µM
same,LC50,CCRF-CEM,> 32.5 µM
same,TGI,CCRF-CEM,2.7 µM
same,GI50,Malme-3M [1],0.576 µM
same,LC50 (concentration killing 50% of starting cells),Malme-3M [1],9.58 µM
same,TGI,Malme-3M [1],1.65 µM
same,growth at 10 µM,NCI-H23,-25.8%
same,growth at 10 µM,MDA-MB-435,-31.3%
same,GI50,NCI-H460,1.01 µM
same,LC50,NCI-H460,> 32.5 µM
same,TGI,NCI-H460,4 µM
same,GI50,IGROV-1 [2],0.715 µM
same,LC50 (concentration killing 50% of cells),IGROV-1 [2],> 32.5 µM
same,TGI,IGROV-1 [2],2.22 µM
same,growth at 10 µM,UO-31,-6.09%
same,growth at 10 µM,HCT-116,-51%
same,GI50,SF-268 [3],1.06 µM
same,TGI,SF-268 [3],6.98 µM
same,CC50,SF-268 [3],> 32.5 µM
same,IC50,PC-3,0.59 µM
same,CC50,PC-3,> 32.5 µM
same,GI50,HOP-92,0.376 µM
same,IC50,HOP-92,0.38 µM
same,LC50,HOP-92,13.5 µM
same,TGI,HOP-92,1.46 µM
same,GI50,NCI-H522,0.72 µM
same,LC50 (concentration killing 50% of cells),NCI-H522,24.5 µM
same,TGI,NCI-H522,2.5 µM
same,GI50,A498,1.4 µM
same,IC50,A498,1.4 µM
same,TGI,A498,6.9 µM
same,CC50,A498,> 32.5 µM
same,GI50,[4],0.797 µM
same,TGI,[4],11.2 µM
same,CC50,[4],> 32.5 µM
same,GI50,OVCAR-5,1.57 µM
same,LC50 (concentration killing 50% of cells),OVCAR-5,> 32.5 µM
same,TGI,OVCAR-5,16.2 µM
same,GI50,M14,0.886 µM
same,LC50 (concentration killing 50% of cells),M14,> 32.5 µM
same,TGI,M14,2.77 µM
same,GI50,SN12C,1.12 µM
same,TGI,SN12C,17.1 µM
same,CC50,SN12C,> 32.5 µM
same,growth at 10 µM,IGROV-1 [5],10.4%
same,growth at 10 µM,ACHN,6.62%
same,growth at 10 µM,SF-268 [6],-34.5%
same,GI50,HOP-62,1.22 µM
same,TGI,HOP-62,7.83 µM
same,CC50,HOP-62,> 32.5 µM
same,GI50,SNB-75,0.678 µM
same,"LC50 (lethal concentration, 50% net cell kill)",SNB-75,> 32.5 µM
same,TGI,SNB-75,3.2 µM
same,GI50,LOX IMVI [7],0.554 µM
same,LC50,LOX IMVI [7],2.39 µM
same,TGI,LOX IMVI [7],1.15 µM
same,GI50,NCI-H226,1.35 µM
same,TGI,NCI-H226,> 32.5 µM
same,CC50,NCI-H226,> 32.5 µM
same,GI50,MCF7,0.663 µM
same,LC50,MCF7,> 32.5 µM
same,TGI,MCF7,> 32.5 µM
same,growth at 10 µM,786-0,4.7%
same,GI50,OVCAR-4,1.2 µM
same,LC50 (concentration killing 50% of cells),OVCAR-4,> 32.5 µM
same,TGI,OVCAR-4,> 32.5 µM
same,growth at 10 µM,Malme-3M [8],-16.6%
same,GI50,SK-OV-3,1.34 µM
same,TGI,SK-OV-3,14.9 µM
same,CC50,SK-OV-3,> 32.5 µM
same,growth at 10 µM,LOX IMVI [9],-75.8%
same,growth at 10 µM,SK-MEL-2,-60.4%
same,GI50,SF-295,0.74 µM
same,IC50,SF-295,0.74 µM
same,TGI,SF-295,2.06 µM
same,CC50,SF-295,> 32.5 µM
